Patent publication US5760188A, “Marker for neurotensin receptor” (Martin R&F Inc., priority 1996, dated 1998)

Legend:
Solubility = assay type: physicochemical; conditions: distilled water or aqueous buffer
Stability / shelf life = assay type: physicochemical; conditions: protected from light and maintained at 4° C.

## CC[C@H](C)[C@H](NC(=O)[C@H](Cc1ccc(O)cc1)NC(=O)[C@@H]1CCCN1C(=O)[C@H](CCCNC(=N)N)NC(=O)[C@H](CCCNC(=N)N)NC(=O)[C@@H]1CCCN1C(=O)[C@H](CCCCN)NC(=O)[C@H](CC(N)=O)NC(=O)[C@H](CCC(=O)O)NC(=O)[C@H](Cc1ccc(O)cc1)NC(=O)[C@H](CC(C)C)NC(=O)[C@H](CCC(=O)O)NC(=S)Nc1ccc2c(c1)C(=O)OC21c2ccc(O)cc2Oc2cc(O)ccc21)C(=O)N[C@@H](CC(C)C)C(=O)O [N-FTC-[Glu^1]NT, N-fluoresceyl thiocarbamyl-[Glu^1] neurotensin]
Solubility
  solubility: freely soluble
Stability / shelf life
  stability: stable
Toxicity (statement)
  toxicity: 100% non-toxic
